Assay results from US7462646B2, “Osteoclastogenesis inhibitors and uses thereof” (Research Development Foundation, priority 2003, dated 2008).

Columns and labels:
RAW 264.7 cells = assay: Osteoclast differentiation assay (RANKL-induced, TRAP staining); format: cell-based, mouse
Protocol: Cells were cultured for 5 days after RANKL treatment and stained for TRAP expression. […] Values indicate mean of total osteoclasts in triplicate cultures (error bar indicates s.d.).
RAW264.7 cells (1×10^4 cells) were incubated with guggulsterone (5 μM) and RANKL (5 nM) for different days. The samples were then analyzed for osteoclastogenesis by TRAP assay. […]
RAW264.7 cells were cultured in 24-well dishes at a density of 1×10^4 cells per well and were allowed to adhere overnight. Medium was then replaced and the cells were treated with 100 ng/ml (˜5 nM) RANKL. At day 5, cultures were stained for TRAP expression as described (Shevde et al., 2000) using an acid phosphatase kit, and the total number of TRAP-positive multinucleated osteoclasts (>3 nuclei) per well were counted.

NF-κB = assay: RANKL-induced NF-κB activation by EMSA in RAW 264.7 cells; format: cell-based, mouse
Protocol: (§1) RAW264.7 cells (1×10^6 cells) were incubated with variable concentrations of guggulsterone for 4 h followed by treatment of the cells with RANKL (10 nM) for 25 min. The samples were then analyzed for NF-κB by EMSA. […] RAW264.7 cells (5×10^6 cells) were incubated with guggulsterone (50 μM) for 4 h followed by treatment of the cells with RANKL (10 nM) for different times. The samples were then analyzed for IKK by immune complex kinase assay.
RAW264.7 cells (1×10^6 cells) were incubated with 1′-Acetoxychavicol (50 μM) and RANKL (10 nm) for different times. The samples were then analyzed for NF-κB by EMSA. […] RAW264.7 cells (1×10^6 cells) were incubated with variable concentrations of 1′-Acetoxychavicol and RANKL (10 nM) for 25 min. The samples were then analyzed for NF-κB by EMSA.
Nuclear extracts were prepared as described earlier (Bharti et al., 2003). Briefly, 2×10^6 RAW264.7 cells were washed with cold PBS, scraped, and suspended in 0.4 ml of hypotonic lysis buffer containing protease inhibitors for 30 min. The cells were then lysed with 12.5 μl of 10% Nonidet P-40. The homogenate was centrifuged, and supernatant containing the cytoplasmic extracts was stored frozen at −80° C. The nuclear pellet was re-suspended in 25 μl ice-cold nuclear extraction buffer. After 30 min of intermittent mixing, the extract was centrifuged, and supernatants containing nuclear extracts were secured. The protein content was measured by the Bradford method. If the extracts were not used immediately, they were stored at −80° C.
NF-κB activation was analyzed by electrophoretic mobility gel shift assay as described (Chaturvedi et al., 1994). […] The radioactive bands from the dried gels were visualized and quantitated by the Phosphorlmager (Molecular Dynamics, Sunnyvale, Calif.) using ImageQuant software.

IκBα = assay: RANKL-induced IκBα degradation by Western blotting in RAW 264.7 cells; format: cell-based, mouse
Protocol: (§2) RAW264.7 cells (1×10^6 cells) were incubated with 1′-Acetoxychavicol (50 μM) and RANKL (10 nM) for different times. The samples were then analyzed for IκBα by western blot. […] RAW264.7 cells (1×10^6 cells) were incubated with different combinations of 1′-Acetoxychavicol (50 μM), RANKL (10 nM), acetyl-leucyl-leucyl-norleucinal (ALLN, 50 μg/ml) for 25 min. The samples were analyzed for phosphorylated IκBα by western blot.
(§3) Thirty to fifty micrograms of cytoplasmic protein extracts were resolved on 10% SDS-PAGE gel. After electrophoresis, the proteins were electrotransferred to a nitrocellulose membrane, blocked with 5% nonfat milk, and probed with antibodies against either IκBα, phospho-IκBα, IKKα, IKKβ, or β-actin (1:3000) for 1 h. Thereafter, the blot was washed, exposed to HRP-conjugated secondary antibodies for 1 h, and finally detected by chemiluminescence (ECL, Amersham Pharmacia Biotech, Arlington Heights, Ill.).

[1] = system: RAW264.7 cells incubated with MCF-7 cells; assay: MCF-7 breast adenocarcinoma cells-induced osteoclastogenesis (TRAP assay); format: cell-based, mouse; conditions: five days
Protocol: (§4) RAW264.7 cells (1×10^4 cells) were incubated either with MDA-MB-468 cells (1×10^3 cells) or with MCF-7 cells (1×10^3 cells) in the presence of varying concentrations of 1′-Acetoxychavicol for five days and then analyzed for osteoclastogenesis by TRAP assay.
(§5) RAW264.7 cells (1×10^4 cells) were incubated with MDA-MB-468 cells (1×10^3 cells) or with MCF-7 cells (1×10^3 cells) in the presence of varying concentrations of guggulsterone for five days and then analyzed for osteoclastogenesis by TRAP assay.
(§6) The ability of tumor cells to induce osteoclastogenesis was also investigated in this study. Cells from head and neck squamous cell carcinoma and breast adenocarcinoma were used for this purpose. Briefly, RAW264.7 cells were incubated with different numbers of cells of head and neck squamous cell carcinoma (HN5, Fadu) or breast adenocarcinoma (MDA-MB-468, MCF-7) and then analyzed for osteoclastogenesis by TRAP assay.

phospho-IκBα = assay: RANKL-induced IκBα phosphorylation by Western blotting in RAW 264.7 cells; format: cell-based, mouse; conditions: for RANKL-induced phosphorylation of IκBα: RANKL 10 nM
Protocol: as §2, §3

[2] = system: RAW264.7 cells incubated with MDA-MB-468 cells; assay: MDA-MB-468 breast adenocarcinoma cells-induced osteoclastogenesis (TRAP assay); format: cell-based, mouse; conditions: five days
Protocol: as §4, §5, §6

IKKα = IKKα protein expression by Western blotting; format: cell-based, mouse; conditions: curcumin 50 μM; FIG. 2C middle/lower panel
Protocol: as §3
(§7) The IκB kinase assay was performed by a modified method as described earlier (Manna et al., 2000). Briefly, 200 μg cytoplasmic extracts were immunoprecipitated with 1 μg of anti-IKKα and anti-IKKβ antibodies each, and the immune complexes so formed were precipitated with 0.01 ml of protein A/G-Sepharose beads for 2 hours. The beads were washed first with lysis buffer and then with the kinase assay buffer (50 mM HEPES pH 7.4, 20 mM MgCl2, and 2 mM DTT). The immune complex was then assayed for kinase activity usinig kinase assay buffer containing 20 μCi [γ-^32P] ATP, 10 μM unlabeled ATP, and 2 μg/sample glutathione S-transferase-IκBα (amino acids 1-54). After incubation at 30° C. for 30 min, the mixture was boiled with 6×SDS sample buffer to stop the reaction. […] The radioactive bands of the dried gel were visualized and quantitated by Phosphorlmager. […]

IκB kinase (IKK) = target: T1, IκB kinase (IKK) (Mus musculus, UniProt O88351+Q60680); assay: IκB kinase (immune complex kinase) assay on extracts of treated RAW 264.7 cells; format: cell-based
T1 construct: 200 μg cytoplasmic extracts were immunoprecipitated with 1 μg of anti-IKKα and anti-IKKβ antibodies each; endogenous in cells; host or cells: RAW 264.7 (mouse macrophage cell line), cytoplasmic extracts, immunoprecipitated with anti-IKKα and anti-IKKβ
T1 sequence (Q60680 whole entry): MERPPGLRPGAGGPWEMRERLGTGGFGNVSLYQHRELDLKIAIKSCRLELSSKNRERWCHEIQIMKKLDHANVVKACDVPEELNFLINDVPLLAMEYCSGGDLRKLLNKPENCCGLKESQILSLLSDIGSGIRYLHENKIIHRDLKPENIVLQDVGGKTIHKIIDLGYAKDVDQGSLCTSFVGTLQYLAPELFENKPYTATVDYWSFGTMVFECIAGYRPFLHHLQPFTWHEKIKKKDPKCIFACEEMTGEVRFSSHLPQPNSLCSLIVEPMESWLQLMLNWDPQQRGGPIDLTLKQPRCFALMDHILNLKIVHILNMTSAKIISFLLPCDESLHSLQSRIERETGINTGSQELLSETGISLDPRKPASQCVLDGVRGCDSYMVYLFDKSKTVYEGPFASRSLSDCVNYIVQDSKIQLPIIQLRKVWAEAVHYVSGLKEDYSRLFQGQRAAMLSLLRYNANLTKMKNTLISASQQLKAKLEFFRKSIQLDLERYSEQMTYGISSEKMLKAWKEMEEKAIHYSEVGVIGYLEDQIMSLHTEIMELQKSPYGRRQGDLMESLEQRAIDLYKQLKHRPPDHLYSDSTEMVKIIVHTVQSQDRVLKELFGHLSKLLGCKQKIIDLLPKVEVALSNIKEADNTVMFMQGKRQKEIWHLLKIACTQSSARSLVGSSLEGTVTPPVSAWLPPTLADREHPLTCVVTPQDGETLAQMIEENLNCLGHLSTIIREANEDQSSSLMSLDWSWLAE
T1 sequence (O88351 whole entry): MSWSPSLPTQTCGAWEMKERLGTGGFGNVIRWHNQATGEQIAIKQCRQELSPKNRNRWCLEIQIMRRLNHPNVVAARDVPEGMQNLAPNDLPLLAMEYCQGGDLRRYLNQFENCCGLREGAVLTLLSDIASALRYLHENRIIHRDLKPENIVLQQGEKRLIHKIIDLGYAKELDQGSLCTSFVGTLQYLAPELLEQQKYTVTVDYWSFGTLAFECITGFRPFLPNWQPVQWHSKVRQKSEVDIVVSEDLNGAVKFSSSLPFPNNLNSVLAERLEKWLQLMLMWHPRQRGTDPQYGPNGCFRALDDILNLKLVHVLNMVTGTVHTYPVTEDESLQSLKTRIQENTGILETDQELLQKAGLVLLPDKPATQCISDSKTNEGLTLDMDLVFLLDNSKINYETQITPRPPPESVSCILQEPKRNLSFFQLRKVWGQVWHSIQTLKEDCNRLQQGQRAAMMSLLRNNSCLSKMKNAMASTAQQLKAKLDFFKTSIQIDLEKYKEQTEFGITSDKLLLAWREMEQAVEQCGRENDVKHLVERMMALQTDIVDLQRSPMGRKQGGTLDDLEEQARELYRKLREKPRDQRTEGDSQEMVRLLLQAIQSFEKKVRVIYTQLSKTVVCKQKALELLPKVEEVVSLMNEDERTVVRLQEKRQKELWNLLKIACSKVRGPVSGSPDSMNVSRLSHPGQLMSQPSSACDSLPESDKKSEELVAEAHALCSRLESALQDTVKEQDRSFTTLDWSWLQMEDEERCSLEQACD
T1 sequence (O88522 whole entry partner): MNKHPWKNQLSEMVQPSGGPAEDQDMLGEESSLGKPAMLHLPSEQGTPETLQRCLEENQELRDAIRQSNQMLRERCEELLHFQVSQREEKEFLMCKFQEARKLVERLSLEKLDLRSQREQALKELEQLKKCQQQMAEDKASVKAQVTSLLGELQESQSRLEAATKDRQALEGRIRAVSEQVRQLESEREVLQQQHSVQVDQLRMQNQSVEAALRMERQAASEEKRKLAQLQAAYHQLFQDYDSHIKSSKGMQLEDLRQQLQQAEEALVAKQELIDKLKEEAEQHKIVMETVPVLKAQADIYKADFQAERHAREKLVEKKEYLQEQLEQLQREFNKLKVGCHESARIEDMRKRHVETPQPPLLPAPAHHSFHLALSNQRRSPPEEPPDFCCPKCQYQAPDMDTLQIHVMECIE
Protocol: as §1

IKKβ = IKKβ protein expression by Western blotting; format: cell-based, mouse; conditions: curcumin 50 μM; FIG. 2C middle/lower panel
Protocol: as §3, §7

[3] = curcumin 10 μM, RANKL 5 nM, 5 days, FIG. 4

For `C=CC(OC(C)=O)c1ccc(O)cc1` (stereo not shown) [1′-Acetoxychavicol], the “RANKL-induced osteoclastogenesis (TRAP assay), incubated for 3 days” value (RAW 264.7 cells; 1′-Acetoxychavicol 0.5 μM and RANKL 5 nM, 3 days, FIG. 11A) was “able to suppress the RANKL-induced osteoclastogenesis”, the “RANKL-induced osteoclastogenesis (TRAP assay), incubated for longer than 3 days” value (RAW 264.7 cells; 1′-Acetoxychavicol 0.5 μM and RANKL 5 nM, longer time, FIG. 11A) was “osteoclasts were seen” and the “RANKL-induced osteoclastogenesis, time of addition of 1′-Acetoxychavicol” value (RAW 264.7 cells; RANKL 5 nM, 1′-Acetoxychavicol 0.5 μM added on different days, FIG. 12) was “suppressed RANKL-induced osteoclastogenesis only when added together with RANKL”. For the same molecule, the “number of RANKL-induced osteoclasts versus 1′-Acetoxychavicol concentration” value (RAW 264.7 cells; different concentrations of 1′-Acetoxychavicol, RANKL 5 nM, FIG. 11B) was “decreased with increasing concentrations of 1′-Acetoxychavicol”, the “RANKL-induced NF-κB activation (EMSA), time course” value (NF-κB; 1′-Acetoxychavicol 50 μM and RANKL 10 nM for different times, FIG. 9A) was “suppressed RANKL-induced NF-κB activation in time-dependent manner” and the “concentration of 1′-Acetoxychavicol at which maximal inhibition of RANKL-induced NF-κB activation was observed” value (NF-κB; RANKL 10 nM 25 min, FIG. 9B) was 50 µM. The “RANKL-induced NF-κB activation (EMSA), dose dependence” value (NF-κB; variable concentrations of 1′-Acetoxychavicol and RANKL 10 nM for 25 min, FIG. 9B) was “suppressed RANKL-induced NF-κB activation in a dose-dependent manner”, the “RANKL-induced IκBα level (degradation)” value (IκBα; 1′-Acetoxychavicol 50 μM and RANKL 10 nM for different times, FIG. 10A) was “no decrease in the RANKL-induced IκBα level” and the “number of TRAP-positive cells, MCF-7 co-incubation” value ([1]; varying concentrations of 1′-Acetoxychavicol, FIG. 15D) was “decreased as the concentration of 1′-Acetoxychavicol increased”. The “MCF-7 cells induced osteoclastogenesis” value ([1]; varying concentrations of 1′-Acetoxychavicol, FIGS. 15C and 15D) was “suppressed”, the “RANKL-induced phosphorylation of IκBα” value (phospho-IκBα; 1′-Acetoxychavicol 50 μM, ALLN 50 μg/ml, 25 min, FIG. 10B) was “suppressed” and the “number of TRAP-positive cells, MDA-MB-468 co-incubation” value ([2]; varying concentrations of 1′-Acetoxychavicol, FIG. 15B) was “decreased as the concentration of 1′-Acetoxychavicol increased”. For the same molecule, the “MDA-MB-468 cells induced osteoclastogenesis” value ([2]; varying concentrations of 1′-Acetoxychavicol, FIGS. 15A and 15B) was “suppressed”.
In the case of `COc1cc(/C=C/C(=O)CC(=O)/C=C/c2ccc(O)c(OC)c2)ccc1O` [curcumin, diferuloylmethane], the “number of RANKL-induced osteoclasts versus curcumin concentration” value (RAW 264.7 cells; RANKL 5 nM, different concentrations of curcumin, 5 days, FIG. 3B) is reported as “number of osteoclasts decreased with increasing concentration of curcumin”, the “RANKL-induced osteoclastogenesis, curcumin added together with RANKL” value (RAW 264.7 cells; curcumin 10 μM added at the same time as RANKL 5 nM, 5 days) is reported as “suppressed osteoclastogenesis maximally” and the “RANKL-induced osteoclastogenesis, curcumin added 24 hours after RANKL” value (RAW 264.7 cells; [3]) is reported as “inhibited osteoclastogenesis”. The “RANKL-induced osteoclastogenesis, curcumin added 2 days after RANKL” value (RAW 264.7 cells; [3]) was “inhibitory effect decreased significantly”, the “RANKL-induced NF-κB activation (EMSA)” value (NF-κB; curcumin 50 μM for 2 hours, then RANKL 10 nM, FIG. 1A) was “completely abrogated the RANKL-induced NF-κB activation” and the “concentration of curcumin at which complete inhibition of RANKL-induced NF-κB activation was observed” value (NF-κB; curcumin 2 h, then RANKL 10 nM, FIG. 1B) was 50 µM. For the same molecule, the “dose dependence of inhibition of RANKL-induced NF-κB” value (NF-κB; indicated concentrations of curcumin 2 h, then RANKL 10 nM, FIG. 1B) was “increased as the dose of curcumin was increased”, the “RANKL-induced IκBα level (degradation)” value (IκBα; curcumin 50 μM 2 h pretreatment, RANKL 10 nM, FIG. 2A) was “no decrease in the RANKL-induced IκBα level” and the “expression of IKKα” value (IKKα) was “did not alter the expression”. The “RANKL-induced IKK activity (phosphorylation of GST-IκBα substrate)” value (IκB kinase (IKK); curcumin 50 μM 2 h pretreatment, RANKL 10 nM, FIG. 2C upper panel) was “could not phosphorylate guggulsterone T-IκBα upon RANKL treatment”, the “RANKL-induced phosphorylation of IκBα” value (phospho-IκBα; curcumin 50 μM 2 h pretreatment, FIG. 2B) was “eliminated the RANKL-induced phosphorylation” and the “phosphorylation of IκBα, curcumin alone” value (phospho-IκBα; curcumin alone, no RANKL, FIG. 2B) was “did not result in phosphorylation of IκBα”. The “expression of IKKβ” value (IKKβ) was “did not alter the expression”.
In the case of `C/C=C1\C(=O)C[C@H]2[C@@H]3CCC4=CC(=O)CC[C@]4(C)[C@H]3CC[C@]12C` [guggulsterone], the “RANKL-induced osteoclastogenesis, time of addition of guggulsterone” value (RAW 264.7 cells; RANKL 5 nM, guggulsterone 5 μM added on different days, FIG. 8) is reported as “suppressed RANKL-induced osteoclastogenesis only when added together with RANKL”, the “RANKL-induced osteoclastogenesis (TRAP assay)” value (RAW 264.7 cells; guggulsterone 5 μM and RANKL 5 nM for different days, FIG. 7A) is reported as “suppressed RANKL-induced osteoclastogenesis” and the “number of RANKL-induced TRAP positive cells” value (RAW 264.7 cells; guggulsterone, RANKL 5 nM, FIG. 7B) is reported as “decreased with increasing concentration of guggulsterone”. The “concentration of guggulsterone at which maximal inhibition of RANKL-induced NF-κB activation was observed” value (NF-κB; guggulsterone 4 h, then RANKL 10 nM 25 min, FIG. 6A) was 50 µM, the “NF-κB activation, guggulsterone alone” value (NF-κB; guggulsterone in the absence of RANKL, FIG. 6A) was “no NF-κB activation” and the “dose dependence of suppression of RANKL-induced NF-κB activation (EMSA)” value (NF-κB; variable concentrations of guggulsterone 4 h, then RANKL 10 nM 25 min, FIG. 6A) was “suppression of this activation increased as the concentration of guggulsterone increased”. The “RANKL-induced IKK activity (immune complex kinase assay)” value (IκB kinase (IKK); guggulsterone 50 μM 4 h pretreatment, RANKL 10 nM different times, FIG. 6B) was “absence of IKK activity upon RANKL treatment”, the “number of TRAP-positive cells, MCF-7 co-incubation” value ([1]; varying concentrations of guggulsterone, FIG. 16D) was “decreased as the concentration of guggulsterone increased” and the “MCF-7 cells induced osteoclastogenesis” value ([1]; varying concentrations of guggulsterone, FIGS. 16C and 16D) was “suppressed”. The “number of TRAP-positive cells, MDA-MB-468 co-incubation” value ([2]; varying concentrations of guggulsterone, FIG. 16B) was “decreased as the concentration of guggulsterone increased” and the “MDA-MB-468 cells induced osteoclastogenesis” value ([2]; varying concentrations of guggulsterone, FIGS. 16A and 16B) was “suppressed”.
